Source: the supplement of paper PMC10307832

Key:
Experiment in all cases: relative viability (nuclei count vs DMSO), 5 days (fraction); higher = more cells survive
Trametinib + Navitoclax = compound: CC(=O)Nc1cccc(-n2c(=O)n(C3CC3)c(=O)c3c(Nc4ccc(I)cc4F)n(C)c(=O)c(C)c32)c1 [Trametinib] + CC1(C)CCC(c2ccc(Cl)cc2)=C(CN2CCN(c3ccc(C(=O)NS(=O)(=O)c4ccc(N[C@H](CCN5CCOCC5)CSc5ccccc5)c(S(=O)(=O)C(F)(F)F)c4)cc3)CC2)C1 [Navitoclax] (partner 0.5 µM)
In short: (§1)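 Lung cancer cell lines in 1536-well plates got either a single drug or a fixed anchor-drug dose together with five library-drug doses (not always all listed) in √10 steps, by pin tool, on the day after seeding. Nuclei were counted after 5 days, and relative viability is the treated-to-vehicle ratio of nuclei counts. Values are medians of duplicate plates.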

[1] = compound: CN1C=C(C2=CC=CC=C21)/C=C\3/C4=C(C=CC=N4)NC3=O + CC(C)C[C@H](NC(=O)[C@H](Cc1ccccc1)NC(=O)c1cnccn1)B(O)O [Bortezomib] (partner 0.002 µM)
In short: as §1

[2] = compound: CN1C=C(C2=CC=CC=C21)/C=C\3/C4=C(C=CC=N4)NC3=O + CC1(C)CCC(c2ccc(Cl)cc2)=C(CN2CCN(c3ccc(C(=O)NS(=O)(=O)c4ccc(N[C@H](CCN5CCOCC5)CSc5ccccc5)c(S(=O)(=O)C(F)(F)F)c4)cc3)CC2)C1 [Navitoclax] (partner 0.5 µM)
In short: as §1

[3] = compound: CN1C=C(C2=CC=CC=C21)/C=C\3/C4=C(C=CC=N4)NC3=O + C[C@]1(O)C[C@@H](c2nc(-c3ccc4ccc(-c5ccccc5)nc4c3)c3c(N)nccn32)C1 [Linsitinib] (partner 1 µM)
In short: as §1

Row | Cell Line | relative viability (Trametinib + Navitoclax; first compound 0.0025 µM) | relative viability (Trametinib + Navitoclax; first compound 0.007906 µM) | relative viability (Trametinib + Navitoclax; first compound 0.025 µM) | relative viability (Trametinib + Navitoclax; first compound 0.07906 µM) | relative viability (Trametinib + Navitoclax; first compound 0.25 µM) | relative viability ([1]; first compound 0.02 µM) | relative viability ([1]; first compound 0.2 µM) | relative viability ([1]; first compound 0.6325 µM) | relative viability ([1]; first compound 2 µM) | relative viability ([2]; first compound 0.02 µM) | relative viability ([2]; first compound 0.2 µM) | relative viability ([2]; first compound 0.6325 µM) | relative viability ([2]; first compound 2 µM) | relative viability ([3]; first compound 0.02 µM) | relative viability ([3]; first compound 0.06325 µM) | relative viability ([3]; first compound 0.2 µM) | relative viability ([3]; first compound 0.6325 µM) | relative viability ([3]; first compound 2 µM) | relative viability ([1]; first compound 0.06325 µM) | relative viability ([2]; first compound 0.06325 µM)
1 | NCI-H441 | 0.761 | 0.633 | 0.572 | 0.312 | 0.278 | 0.744 | 0.545 | 0.602 | 0.774 | 1.08 | 0.906 | 0.596 | 0.875 | 0.634 | 0.588 | 0.494 | 0.424 | 0.57 |  | 
2 | NCI-H520 | 1.11 | 1.15 | 1.04 | 1.01 | 0.77 | 0.6 | 0.653 | 0.578 | 0.667 | 0.935 | 1.09 | 1.17 | 1.17 | 0.87 | 0.808 | 0.963 | 0.96 | 1.02 | 0.432 | 1.03
3 | CAL-12T | 1.04 | 0.831 | 0.554 | 0.738 | 0.492 | 0.904 | 0.945 | 1.08 | 1.04 | 1.22 | 1.22 | 1.19 | 1.14 | 0.821 | 0.787 | 0.809 | 1.05 | 0.809 | 0.882 | 1.11
4 | HCC-827 | 1.06 | 0.971 | 1.03 | 0.946 | 0.676 | 0.898 |  | 1.03 | 1.03 | 0.956 |  | 1.03 | 0.986 | 0.929 | 0.923 |  | 0.944 | 0.926 | 1.02 | 1.02
5 | LC-2-ad | 0.35 | 0.306 | 0.34 | 0.285 | 0.173 | 1 | 0.964 | 0.971 | 0.965 | 0.412 | 0.439 | 0.412 | 0.389 | 0.743 | 0.83 | 0.766 | 0.864 | 0.765 | 0.942 | 0.304
6 | NCI-H2170 | 0.636 | 0.521 |  | 0.425 | 0.448 |  |  |  |  |  | 0.527 | 0.543 | 0.541 |  |  |  |  |  |  | 0.604
7 | SW 1573 | 0.723 | 0.885 | 0.609 | 0.546 | 0.404 | 1.02 | 1.11 | 1.11 | 1 | 1.18 | 1.02 | 1.12 | 0.893 | 0.894 | 0.793 | 0.914 | 0.787 | 0.965 | 0.904 | 0.861
8 | SK-MES-1 | 1.3 | 1.25 | 0.943 | 0.624 | 0.357 |  |  |  |  | 0.902 | 1.26 | 1.11 | 1.15 | 0.937 | 1.18 | 1.09 | 1.02 | 1.06 |  | 1.04
9 | NCI-H1793 | 0.36 | 0.345 | 0.265 | 0.216 | 0.133 |  |  |  |  | 0.425 | 0.267 | 1.05 | 0.934 | 1 | 1.06 | 0.748 | 0.95 | 0.884 |  | 0.415
10 | NCI-H1299 | 1.04 | 1.01 | 0.896 | 0.887 | 0.78 | 1.05 | 0.965 | 1.06 | 0.988 | 1.04 | 1.02 | 1.12 | 1.02 | 1.07 | 1.03 | 1.06 | 1.06 | 1.05 | 0.957 | 0.988
11 | LCLC-97TM1 | 0.427 | 0.451 | 0.216 | 0.207 | 0.122 |  |  | 0.521 | 0.517 | 0.322 |  | 0.566 | 0.36 | 0.164 |  |  | 0.203 | 0.179 | 0.444 | 
12 | NCI-H1915 | 0.799 | 0.79 | 0.681 | 0.719 | 0.217 | 0.913 | 0.962 | 1.11 | 1.15 | 0.823 | 0.805 | 0.772 | 0.801 | 1.07 | 1.1 | 1.08 | 1.12 | 1.06 | 1 | 0.8
13 | NCI-H661 |  |  |  |  |  | 0.775 | 0.691 | 0.727 | 0.878 |  |  |  |  | 0.689 | 0.536 | 0.578 | 0.486 | 0.559 | 0.735 | 
14 | NCI-H2405 | 0.732 | 0.515 | 0.48 | 0.423 | 0.305 | 0.997 |  | 0.892 | 1 | 0.891 | 0.65 | 1.1 | 0.732 | 0.871 | 0.912 | 0.783 | 0.954 | 0.816 | 0.874 | 0.803
15 | NCI-H2347 | 0.678 | 0.328 | 0.143 | 0.198 | 0.215 | 0.976 | 0.906 | 0.615 | 1 | 0.826 | 0.743 | 0.764 | 0.834 | 0.998 | 0.963 | 0.944 | 0.986 | 0.959 | 1.01 | 0.859
